Source: patent US10172797B2, “Extruded extended release abuse deterrent pill” (Pharmaceutical Manufacturing Research Services, Inc., priority 2013, dated 2019)

Tests used:
[1] = cited from earlier work
[2] = Alcohol solubility tested (200 proof ethanol, 0.22 micrometer PTFE filter); assay type: physicochemical
Text: The following table lists the relative solubility of exemplary components of a formulation. A number of different dyes are listed along with their solubility information taken from the various literature sources and tested experimentally (200 proof ethanol and filtered through a 0.22 micrometer PTFE filter).

CCN(Cc1cccc(S(=O)(=O)[O-])c1)c1ccc(C(=C2C=CC(=[N+](CC)Cc3cccc(S(=O)(=O)[O-])c3)C=C2)c2ccccc2S(=O)(=O)[O-])cc1.[Na+].[Na+] [Blue #1]
Yes: Alcohol Solubility (Literature) [1] | Water Solubility [1] | Alcohol Solubility (tested) [2]

O=C1/C(=C2\Nc3ccc(S(=O)(=O)[O-])cc3C2=O)Nc2ccc(S(=O)(=O)[O-])cc21.[Na+].[Na+] [Blue #2]
Yes: Alcohol Solubility (Literature) [1] | Water Solubility [1] | Alcohol Solubility (tested) [2]

COc1cc(S(=O)(=O)[O-])c(C)cc1N=Nc1c(O)ccc2cc(S(=O)(=O)[O-])ccc12.[Na+].[Na+] [Red #40]
Yes: Alcohol Solubility (Literature) [1] | Water Solubility [1] | Alcohol Solubility (tested) [2]

O=C([O-])C1=NN(c2ccc(S(=O)(=O)[O-])cc2)C(=O)C1N=Nc1ccc(S(=O)(=O)[O-])cc1.[Na+].[Na+].[Na+] (stereo not drawn) [Yellow #5]
Yes: Alcohol Solubility (Literature) [1] | Water Solubility [1] | Alcohol Solubility (tested) [2]
